Measured values reported in patent publication EP2468882A1, “Aurora kinase polypeptides for identifying fungicidal compounds” (Bayer CropScience AG, priority 2010, dated 2012).

Legend:
U. maydis = experiment: ED50 determination, growth inhibition of U. maydis in liquid culture; assay type: cell-based; conditions: concentration at which growth in liquid culture is inhibited by 50%; 3 days, 20°C, OD at 600 nm
Protocol: Der ED50 Wert ist die Konzentration einer Verbindung, bei der das Wachstum von U. maydis in Flüssigkultur zu 50% gehemmt wird. Verbindungen für ED50-Bestimmungen wurden in Methanol + 4 g/l Emulgator (z. B. PS 16 von Bayer AG) zu 666,67facher Endkonzentration gelöst. 15 µl jeder Verbindung werden in 7 Konzentrationen bei getrocknet. Flüssigkulturen von U. maydis in Difco Potato Dextrose Broth (BD, Cat No #254920) wurden auf eine OD600 ~ 0,1 eingestellt und je 200 µl dieser Suspension zugegeben. Die Kulturen wurden 3 Tage bei 20°C, 600 Upm und 80% Luftfeuchte inkubiert. Anschließend wurde die OD bei 600 nm bestimmt und gegen die Inhibitor-Konzentration der Verbindung 1 aufgetragen. Als positive Kontrolle wurde Euparen (Dichlorfluarid; CAS 1085-98-9) verwendet, als negative Kontrolle Methanol + PS 16 ohne Inhibitor. Aus der gemessenen OD600 wurde der ED50-Wert bestimmt (Abb. 5). Der ED50 Wert der Verbindung 1 wurde zu 21,8 ppm ermittelt, der ED50 Wert von Dichlorfluarid wurde zu 1 ppm ermittelt. [formula] [formula] [formula] [formula] [formula] [formula] [formula] [formula] [formula] [formula] [formula] [formula] [formula] [formula] [formula] [formula] [formula] [formula] [formula] [formula] [formula] [formula] [formula] [formula] [formula] [formula] [formula] [formula]

[1] = target: Komplex aus SEQ ID NO: 12 und SEQ ID NO: 16 (Mycosarcoma maydis (Ustilago maydis), UniProt A0A0D1E894); experiment: IMAP fluorescence polarisation assay, inhibition of Aurora kinase (AK/AKA complex); assay type: biochemical, U. maydis; conditions: final enzyme concentration 2 ng/µl, final ATP 35 µM, reaction time 50 min
Komplex aus SEQ ID NO: 12 und SEQ ID NO: 16, sequence (A0A0D1E894 entry or part of it): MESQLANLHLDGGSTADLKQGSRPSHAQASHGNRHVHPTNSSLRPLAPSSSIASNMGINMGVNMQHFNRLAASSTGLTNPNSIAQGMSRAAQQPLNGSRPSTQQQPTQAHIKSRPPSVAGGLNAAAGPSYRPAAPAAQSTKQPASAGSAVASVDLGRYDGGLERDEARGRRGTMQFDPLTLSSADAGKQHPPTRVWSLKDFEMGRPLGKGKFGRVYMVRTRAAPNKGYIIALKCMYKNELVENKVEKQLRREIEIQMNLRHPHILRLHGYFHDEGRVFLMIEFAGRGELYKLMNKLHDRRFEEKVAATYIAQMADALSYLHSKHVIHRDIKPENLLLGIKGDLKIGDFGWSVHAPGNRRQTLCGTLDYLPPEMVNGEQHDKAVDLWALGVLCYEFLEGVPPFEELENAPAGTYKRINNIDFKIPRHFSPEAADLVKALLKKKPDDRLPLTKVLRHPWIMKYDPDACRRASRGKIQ
Source text: Assay 3: Für den kommerziell erhältlichen IMAP Assay (Molecular Devices) sind 2 Substrate für humane Aurorakinasen (Kemptide, Cat #R7331, Sequenz 5TAMRA-LRRASLG-OH und PKAtide, Cat #R7250, Lot #130188, Sequenz 5FAM-GRTGRRNSI-NH2) kommerziell erwerbbar. Der Assay wurde nach Herstellerangaben durchgeführt. • IMAP Progressive Binding Reagent: Cat #R7284, Lot #143859 • IMAP Progressive Binding Buffer A: Cat #R7285, Lot #42898 • IMAP 5x Reaction Buffer: Cat #R7206, Lot #33060
Der IMAP Fluoreszenz-Polarisations-Assay (Molecular Devices) beruht auf der spezifschen, hochafmen Interaktion zwischen Phosphatgruppen und trivalenten Metallionen. Durch die Kinasereaktion wird ein fluoreszentes Substrat phosphoryliert, welches daraufhin von den in der Stop-Lösung enthaltenen Metall-Kügelchen spezifisch gebunden wird. Durch diese Interaktion erhöht sich die Fluoreszenzpolarisation, was die Bestimmung der Kinaseaktivität ermöglicht. Der Assay wurde nach Angaben des Herstellers wie folgt ausgeführt: • 1 Vol. Inhibitor in 4% DMSO bzw. 4% DMSO • 1 Vol. Enzymlösung • 2 Vol. ATP/Substrat • 12 Vol. Stoplösung • Inkubation bei RT 30 min.
Enzymlösung: z. […]

Compound	ED50 Wert (U. maydis)	IC50 [1] [nM]
CN(C)S(=O)(=O)N(SC(F)(Cl)Cl)c1ccccc1 [Dichlorfluarid]	1 ppm	–
CN[C@@H]1C[C@H]2O[C@@](C)([C@@H]1OC)n1c3ccccc3c3c4c(c5c6ccccc6n2c5c31)C(=O)NC4 [Staurosporin]	–	2.1
COCCOc1ccc(Nc2ncc(Cl)c(NC3CC3)n2)cc1 [Verbindung 1]	21,8 ppm	8.8
